# From patent publication US20210323940A1 (OCEANS LTD., priority 2018, published 2021)
# What was measured:
# [1] = system: MDA-MB-231 human breast cancer cells; test: Murine flank tumor model, pure compound (II): tumor volume and weight; type: in vivo, nude mice (strain J:NU); conditions: for Tumour weight (mg) ± SEM, extracted at necropsy: intraperitoneal every second day, 4 weeks
# Procedure: Animal studies were conducted under ACC protocol #17-020 and Biosafety protocol #6007077 approved by the Atlantic Veterinary College (AVC, UPEI). Briefly, homozygous outbred nude mice (strain J:NU, 4-weeks old, female) suitable as immunodeficient tumor transplant hosts were procured from a commercial supplier (Jackson Labs, Maine, USA) and acclimatized in a barrier facility (AVC, UPEI) for one week.
# To establish the tumors, MDA-MB-231 human breast cancer cells were cultured in vitro and harvested when they were between 60 to 80% confluent. Under anesthetized conditions, each the mouse was injected subcutaneously into both right and left flanks with […] (50:50 in matrigel:DMEM). Tumors development was monitored over a 2-week period. At 2 weeks, tumor established mice (tumor volume ˜20 mm^3) were selected and randomly grouped based on the tumor volume and body weight into ten mice per group as follows: • Group 1: Vehicle control (VC, DMSO 2%, Kholliphor EL 2%) • Group 2: Compound (II), 10 mg/kg body weight • Group 3: Compound (II), 5 mg/kg body weight
# Seaweed extract was dissolved in molecular grade DMSO, liquid emulsion was prepared in Kholliphor EL (Sigma, USA) and the final injectable solution was prepared using sterile normal saline.
# Mice with established tumors were treated every second day by intraperitoneal injections of test extracts over a 4-week time course. From each group a minimum of 16 tumors were selected for analysis. Tumors were measured weekly using external calipers and volumes established using the modified ellipsoidal formula: tumor volume=0.5 (length×width^2).
# In addition, body weights and general animal health were assessed twice weekly during the treatment period. At study termination, mice were sacrificed, and tumors excised from the flank. To evaluate tumor metastasis, an explorative necropsy was conducted in each mouse and the presence and frequency of additional tumors at sites distal to the flank were assessed. Tumor tissue from the flank region was collected and preserved in 10% neutral buffered formalin for histology. Variance within each of the treatment groups to vehicle control was assessed over the four-week time course by one-way ANOVA.
# [2] = system: CCD1079SK (fibroblast, noncancerous but proliferating); test: CIMA assay (tetrazolium reduction, cell viability, 72 h); type: cell-based, human; conditions: Homo sapiens, Fibroblast; 1079SK; 72 h
# Procedure: (§1) Prepared extracts were assessed following chronic exposure conditions in which cells were seeded at 2×10^3 cells/well (96 wells-plate) and incubated with test compounds for 72 h. Each compound was evaluated over a range of concentrations (0, 10, 25, 50 or 100 μg/ml). Cell proliferation was initially assessed using a standard colorimetric indicator of metabolic activity (CIMA) assay. In this assay, tetrazole reduction was evaluated as a measure of metabolic function that evaluates mitochondrial activity to determine the extent of cell proliferation within a culture. This assay is based on the reduction of yellow tetrazolium salt to purple formazan by mitochondrial reductases enzyme in viable cells, resulting in a color change that confers a change in absorbance. Seven human cell lines were selected for primary evaluation: U373 (glioblastoma-astrocytoma), A549 (lung carcinoma), THP-1 (acute monocytic leukemia), MCF7 (mammary gland adenocarcinoma), SKOV3 (ovarian adenocarcinoma), PC3 (prostate adenocarcinoma) and CCD1079SK (fibroblast, noncancerous but proliferating) (see FIG. 2 and Table 2). Results are expressed in Table 2 as % viability (means±standard deviation of three replicates), with LD50/IC50 values in Tables 3 and 6. […] The maximum DMSO concentration was 1% at 100 μg/ml with 5% SDS used as a known toxic inducer.
# (§2) Experimental: Stock solutions of the test compounds were prepared in dimethylsulfoxide (DMSO) at 10 mg/ml and stored at −20° C. until used. This preparation ensures that the DMSO content delivered to cells in culture never exceeds 1%. Appropriate cells number, based on previous assays, were seeded in 96 well plate and incubated with test compounds (up to 8 log concentrations, 0 to 50 or 100 μg/ml) for 72 h. Cell proliferation was initially assessed using a standard colorimetric indicator of metabolic activity (CIMA) assay. In this assay, reduction of yellow tetrazolium salt (MTT) to purple formazan by mitochondrial reductases enzymes in viable cells were measured as change in absorbance (λ=500-600).
# (§3) Seven human cell lines were evaluated: U373 (glioblastoma-astrocytoma), A549 (lung carcinoma), PC3 (prostate adenocarcinoma), THP1 (acute monocytic leukemia), MDA-MB-231 (mammary gland adenocarcinoma), SKOV3 (ovarian adenocarcinoma) and CCD1079Sk (normal skin fibroblast) cells.
# A549 (lung carcinoma) = test: as above; type: cell-based, human; conditions: Homo sapiens
# Procedure: as §1, §2, §3
# [3] = system: U373 (glioblastoma-astrocytoma); test: as above; type: cell-based, human; conditions: Homo sapiens, U373 MG
# Procedure: as §1, §2, §3
# [4] = system: PC3 (prostate adenocarcinoma); test: as above; type: cell-based, human; conditions: Homo sapiens
# Procedure: as §1, §2, §3
# [5] = system: THP-1 (acute monocytic leukemia); test: as above; type: cell-based, human; conditions: Homo sapiens
# Procedure: as §1, §2, §3
# [6] = as above; type: cell-based, human; conditions: human
# Procedure: as §1, §2, §3
# [7] = system: SKOV3 (ovarian adenocarcinoma); test: as above; type: cell-based, human; conditions: Homo sapiens
# Procedure: as §1, §2, §3
# [8] = A549, read-out: average cell viability
# [9] = read-out: average cell viability
# [10] = THP-1, read-out: average cell viability
# [11] = SK-OV-3, read-out: average cell viability
smiles,measurement,setting,value
"CCCCC[C@H](O)[C@H](O)/C=C/[C@@H]1CCCCCCCC(=O)O1 [compound (II), 12R, 13S-Dihydroxy-10-Octadecen-9S-olide]",Tumour volumes ± SEM,"[1]; 5 mg/kg b. wt. i.p. every second day, Week 0",26.94 ± 1.98 mm^3
same,Tumour volumes ± SEM,"[1]; 5 mg/kg b. wt. i.p. every second day, Week 1",20.83 ± 2.20 mm^3
same,Tumour volumes ± SEM,"[1]; 5 mg/kg b. wt. i.p. every second day, Week 2",17.38 ± 2.04*¶ mm^3
same,Tumour volumes ± SEM,"[1]; 5 mg/kg b. wt. i.p. every second day, Week 3",17.23 ± 3.18*¶ mm^3
same,Tumour volumes ± SEM,"[1]; 5 mg/kg b. wt. i.p. every second day, Week 4",28.01 ± 3.61*¶ mm^3
same,"Tumour weight (mg) ± SEM, extracted at necropsy",[1]; 5 mg/kg b.wt.,34.64 ± 15.78 mg
same,Tumour volumes ± SEM,"[1]; 10 mg/kg b. wt. i.p. every second day, Week 0",27.09 ± 1.60 mm^3
same,Tumour volumes ± SEM,"[1]; 10 mg/kg b. wt. i.p. every second day, Week 1",24.06 ± 1.98 mm^3
same,Tumour volumes ± SEM,"[1]; 10 mg/kg b. wt. i.p. every second day, Week 2",17.40 ± 2.88*¶ mm^3
same,Tumour volumes ± SEM,"[1]; 10 mg/kg b. wt. i.p. every second day, Week 3",18.95 ± 5.34*¶ mm^3
same,Tumour volumes ± SEM,"[1]; 10 mg/kg b. wt. i.p. every second day, Week 4",28.37 ± 9.37*¶ mm^3
same,"Tumour weight (mg) ± SEM, extracted at necropsy",[1]; 10 mg/kg b.wt.,27.29 ± 8.07 mg
same,tumor volume at the end of 4-weeks (average),"[1]; 5 and 10 mg/kg, controls rose from 26 to 73 mm^3",~27 mm^3
same,change in tumor size during the 4-week study,[1]; both tested concentrations (5 and 10 mg/kg),no significant change in tumor size
same,IC50,[2],34.9 µg/mL
same,viability at 1 µg/mL,A549 (lung carcinoma); [8],95%
same,viability at 10 µg/mL,A549 (lung carcinoma); [8],93%
same,viability at 50 µg/mL,A549 (lung carcinoma); [8],92%
same,viability at 100 µg/mL,A549 (lung carcinoma); [8],61%
same,IC50,"A549 (lung carcinoma); A549, 72 h",22 µg/mL
same,viability at 1 µg/mL,[3]; [9],90%
same,viability at 10 µg/mL,[3]; [9],85%
same,viability at 50 µg/mL,[3]; [9],68%
same,viability at 100 µg/mL,[3]; [9],3%
same,IC50,"[3]; U373, 72 h",39.1 µg/mL
same,viability at 1 µg/mL,[4]; [9],100%
same,viability at 10 µg/mL,[4]; [9],93%
same,viability at 50 µg/mL,[4]; [9],97%
same,viability at 100 µg/mL,[4]; [9],19%
same,IC50,"[4]; PC3, 72 h",37.7 µg/mL
same,viability at 1 µg/mL,[5]; [10],96%
same,viability at 10 µg/mL,[5]; [10],84%
same,viability at 50 µg/mL,[5]; [10],68%
same,viability at 100 µg/mL,[5]; [10],44%
same,IC50,"[5]; THP-1, 72 h",25.9 µg/mL
same,"viability at 72 h, 1 ug/mL",[6],91%
same,"viability at 72 h, 10 ug/mL",[6],84%
same,"viability at 72 h, 50 ug/mL",[6],90%
same,"viability at 72 h, 100 ug/mL",[6],17%
same,viability at 1 µg/mL,[7]; [11],97%
same,viability at 10 µg/mL,[7]; [11],97%
same,viability at 50 µg/mL,[7]; [11],94%
same,viability at 100 µg/mL,[7]; [11],85%
same,IC50,"[7]; SK-OV-3, SKOV3, 72 h",67.7 µg/mL
